Patent publication US20240360126A1, “PYRAZOLO[3,4-B]PYRIDINE COMPOUNDS FOR THE TREATMENT OF AUTOIMMUNE DISEASE” (Hoffmann-La Roche Inc., priority 2021, published 2024)

Tests used:
[1] = Human microsome stability assay; type: in vitro ADME; conditions: for Clearance of Human microsome: 1 μM test compound, 0.5 mg/mL liver microsomal protein, 37° C.
Procedure: The human microsomal stability assay is used for early assessment of metabolic stability of a test compound in human liver microsomes.
Human liver microsomes (Cat. NO.: 452117, Corning, USA; Cat. NO.:H2610, Xenotech, USA) were preincubated with test compound for 10 minutes at 37° C. in 100 mM potassium phosphate buffer, pH 7.4. The reactions were initiated by adding NADPH regenerating system.
The final incubation mixtures contained 1 μM test compound, 0.5 mg/mL liver microsomal protein, 1 mM MgCl2, 1 mM NADP, 1 unit/mL isocitric dehydrogenase and 6 mM isocitric acid in 100 mM potassium phosphate buffer, pH 7.4. After incubation times of 0, 3, 6, 9, 15 and 30 minutes at 37° C., 300 μL of cold acetonitrile (including internal standard) was added to 100 μL incubation mixture to terminate the reaction. Following precipitation and centrifugation, the amount of compound remaining in the samples were determined by LC-MS/MS. Controls of no NADPH regenerating system at zero and 30 minutes were also prepared and analyzed.

hERG K+ channel = biological target: T1, hERG K+ channel (Homo sapiens, UniProt Q12809); test: hERG channel inhibition assay (patch-clamp, CHO-hERG cells); type: cell-based; conditions: for IC50 / IC20: CHO-hERG cells, whole-cell patch-clamp; for IC20: human, CHO cells stably expressing hERG; for hERG IC20/TLR7 IC50 / hERG IC20/TLR8 IC50 / hERG IC20/TLR9 IC50: safety ratio
T1 construct: expressed in transfected cells; host or cells: CHO (Chinese hamster ovary)
Procedure: The hERG K^+ channels were cloned in humans and stably expressed in a CHO (Chinese hamster ovary) cell line. CHOhERG cells were used for patch-clamp (voltage-clamp, whole-cell) experiments. Cells were stimulated by a voltage pattern to activate hERG channels and conduct IKhERG Currents (rapid delayed outward rectifier potassium current of the hERG channel). After the cells were stabilized for a few minutes, the amplitude and kinetics of IKhERG were recorded at a stimulation frequency of 0.1 Hz (6 bpm). Thereafter, the test compound was added to the preparation at increasing concentrations. For each concentration, an attempt was made to reach a steady-state effect, usually, this was achieved within 3-10 min at which time the next highest concentration was applied. The amplitude and kinetics of IKhERG are recorded in each concentration of the drug which were compared to the control values (taken as 100%). (references: Redfe W S, Carlsson L, Davis A S, Lynch W G, MacKenzie I, Palethorpe S, Siegl P K, Strang I, Sullivan A T, Wallis R, Camm A J, Hammond T G. 2003; Relationships between preclinical cardiac electrophysiology, clinical QT interval prolongation and torsade de pointes for a broad range of drugs: evidence for a provisional safety margin in drug development. Cardiovasc. Res. 58:32-45, Sanguinetti M C, Tristani-Firouzi M. 2006; hERG potassium channels and cardiac arrhythmia. Nature 440:463-469, Webster R, Leishman D, Walker D. 2002; Towards a drug concentration effect relationship for QT prolongation and torsades de pointes. Curr. Opin. Drug Discov. Devel. 5:116-26).

TLR9 [2] = biological target: T2, TLR9 (Homo sapiens, UniProt Q9NR96); test: Human PBMC cell-based assay; design: These cells express TLR7, TLR8, or TLR9, and therefore are natural responders to respective ligand stimulation; endogenous in cells; host or cells: human PBMC from healthy donor whole blood; conditions: CpG ODN 2216 at 1 μM, read-out: hPBMC/TLR9 IC50
T2 sequence (Q9NR96 26-1032): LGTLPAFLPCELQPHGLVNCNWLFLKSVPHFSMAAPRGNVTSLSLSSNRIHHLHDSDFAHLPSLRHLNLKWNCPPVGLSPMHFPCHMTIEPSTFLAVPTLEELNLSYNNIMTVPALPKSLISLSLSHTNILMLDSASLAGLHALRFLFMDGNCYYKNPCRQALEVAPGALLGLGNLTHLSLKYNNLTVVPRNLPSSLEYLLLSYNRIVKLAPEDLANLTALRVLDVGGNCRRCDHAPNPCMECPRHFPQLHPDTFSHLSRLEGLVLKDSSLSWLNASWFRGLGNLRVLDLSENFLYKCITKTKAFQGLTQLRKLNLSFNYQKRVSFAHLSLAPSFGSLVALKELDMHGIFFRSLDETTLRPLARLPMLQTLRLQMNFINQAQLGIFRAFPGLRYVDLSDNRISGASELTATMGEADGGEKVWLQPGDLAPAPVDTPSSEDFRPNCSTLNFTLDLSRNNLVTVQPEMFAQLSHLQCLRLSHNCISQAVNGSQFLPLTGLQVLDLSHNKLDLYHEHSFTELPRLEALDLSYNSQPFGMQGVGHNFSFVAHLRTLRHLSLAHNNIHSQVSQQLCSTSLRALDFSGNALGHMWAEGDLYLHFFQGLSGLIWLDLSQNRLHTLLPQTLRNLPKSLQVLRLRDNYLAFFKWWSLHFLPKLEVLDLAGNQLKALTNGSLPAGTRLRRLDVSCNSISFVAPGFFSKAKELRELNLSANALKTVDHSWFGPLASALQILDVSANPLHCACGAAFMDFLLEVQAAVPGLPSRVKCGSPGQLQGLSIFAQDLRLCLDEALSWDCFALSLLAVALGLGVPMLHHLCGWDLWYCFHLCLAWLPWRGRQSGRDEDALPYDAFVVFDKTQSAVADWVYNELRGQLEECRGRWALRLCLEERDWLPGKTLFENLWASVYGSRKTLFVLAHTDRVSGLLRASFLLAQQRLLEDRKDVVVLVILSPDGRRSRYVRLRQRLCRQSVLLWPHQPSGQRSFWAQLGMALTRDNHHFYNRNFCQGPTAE
Description: Unlike the HEK reporter cell lines, human peripheral blood mononuclear cell (PBMC) represents primary human immune cells in blood mainly consisting of lymphocytes, monocytes, and dendritic cells. These cells express TLR7, TLR8, or TLR9, and therefore are natural responders to respective ligand stimulation. Upon activation of these TLRs, PBMCs secrete similar cytokines and chemokines in vitro and in vivo, and therefore the in vitro potency of a TLR7/8/9 antagonist in human PBMC is readily translatable to its pharmacodynamics response in vivo.
Human peripheral blood mononuclear cells (PBMC) were isolated from freshly-drawn lithium-heparinized (Lithium Heparin Plus blood Collection tube, BD Vacutainer®) healthy donor whole blood by density gradient (Ficoll-Paque™ PLUS, GE Healthcare life Sciences). Briefly, […] was diluted with 25 mL PBS (without Ca^2+, Mg^2+) in a 50 mL conical tube with porous barrier (Leucosep tube, Greiner bio-one), where 15.5 mL Ficoll-Paque was under laid after spinning. Tubes were centrifuged for 20 minutes at 800×g (1946 rpm) with the brake in the off position, and PBMC were collected from the buffy coat. Cells were then washed twice in PBS, and red blood cells were lysed by suspension in 2 mL (Red Blood Cell Lysis Buffer, Alfa Aesar) for 5-10 minutes at room temperature. After a final wash in PBS, PBMC were resuspended at a final concentration of 2×10^6 cells/mL in RPMI-1640 media with GlutaMAX™ (Gibco) supplemented with 10% Fetal Bovine Serum (Sigma) and plated at 150 μL/well (3×10^5 cells/well) in tissue culture treated round bottom 96-well plates (Corning Incorporated). Antagonist compounds (compounds of this invention) solubilized and serial diluted in 100% DMSO were added in duplicate to cells to yield a final concentration of 1% DMSO (v/v). PBMC were incubated with antagonist compounds for 30 minutes at 37° C., 5% CO2 before adding various TLR agonist reagents in 48 μL complete media per well as follows (final concentrations indicated): CpG ODN 2216 (InvivoGen) at 1 μM for TLR9, ORN 06/LyoVec (InvivoGen) at […] for TLR8 and R848 (InvivoGen) at 1 μg/mL for TLR7 and TLR8. PBMC were incubated overnight at 37° C. with 5% C02. Cell culture supernatants were collected, and levels of various human cytokines were assessed by Luminex assay (ProcartaPlex™ Multiplex Immunoassay, Invitrogen) or ELISA procedure according to the manufacturer's recommended protocol (eBioscience, ThermoFisher Scientific). Viability of the cells was also checked with Cell Viability Assay (CellTiter Glo® Luminescent Cell Viability Assay, Promega).

TLR9 [3] = biological target: T2, TLR9; test: TLR9 activity of Novartis WO2018047081 compounds (background comparison)

T1 sequence (Q12809 whole entry): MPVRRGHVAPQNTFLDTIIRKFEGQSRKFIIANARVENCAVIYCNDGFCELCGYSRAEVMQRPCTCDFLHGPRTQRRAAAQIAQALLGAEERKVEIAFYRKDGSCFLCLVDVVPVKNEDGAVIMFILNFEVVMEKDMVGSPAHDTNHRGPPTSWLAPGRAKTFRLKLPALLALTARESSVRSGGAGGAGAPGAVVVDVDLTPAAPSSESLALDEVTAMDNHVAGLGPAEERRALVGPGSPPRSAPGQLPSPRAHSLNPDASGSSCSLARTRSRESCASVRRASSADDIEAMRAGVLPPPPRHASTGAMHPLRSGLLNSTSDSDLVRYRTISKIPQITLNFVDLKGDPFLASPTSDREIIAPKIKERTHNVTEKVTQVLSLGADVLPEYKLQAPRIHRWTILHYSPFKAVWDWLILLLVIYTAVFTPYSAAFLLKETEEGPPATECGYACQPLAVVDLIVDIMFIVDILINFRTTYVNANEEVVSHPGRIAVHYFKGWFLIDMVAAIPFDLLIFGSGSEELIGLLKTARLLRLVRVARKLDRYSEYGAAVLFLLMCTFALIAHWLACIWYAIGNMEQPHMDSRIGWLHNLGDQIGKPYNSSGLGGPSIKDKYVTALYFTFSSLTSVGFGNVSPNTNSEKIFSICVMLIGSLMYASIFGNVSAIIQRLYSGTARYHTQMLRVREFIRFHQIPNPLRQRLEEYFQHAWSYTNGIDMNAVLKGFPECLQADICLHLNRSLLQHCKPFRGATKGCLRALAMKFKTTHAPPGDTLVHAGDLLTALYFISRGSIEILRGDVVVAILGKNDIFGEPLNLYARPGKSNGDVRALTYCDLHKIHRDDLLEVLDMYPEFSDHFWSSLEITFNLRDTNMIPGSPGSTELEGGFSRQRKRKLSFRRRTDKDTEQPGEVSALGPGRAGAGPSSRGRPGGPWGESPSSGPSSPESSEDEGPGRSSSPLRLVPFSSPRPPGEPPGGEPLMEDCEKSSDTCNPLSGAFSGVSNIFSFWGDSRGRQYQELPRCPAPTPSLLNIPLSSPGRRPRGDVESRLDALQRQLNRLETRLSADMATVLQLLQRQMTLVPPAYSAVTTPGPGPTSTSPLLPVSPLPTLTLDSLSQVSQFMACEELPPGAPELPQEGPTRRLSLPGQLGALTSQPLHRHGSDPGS

SMILES | Clearance of Human microsome [1] | IC50 (hERG K+ channel) | IC20 (hERG K+ channel) | hERG IC20/TLR7 IC50 (hERG K+ channel) | hERG IC20/TLR8 IC50 (hERG K+ channel) | hERG IC20/TLR9 IC50 (hERG K+ channel) | IC50 (TLR9 [2]) | human liver microsome stability (in words) [1] | TLR9 activity (in words) (TLR9 [3])
C[C@@H]1CN(c2ccnc3c2cnn3C)CC[C@H]1c1ccc(N2CCNCC2)nc1 (relative stereo) [Example 19, 1-methyl-4-[trans-3-methyl-4-(6-piperazin-1-yl-3-pyridyl)-1-piperidyl]pyrazolo[3,4-b]pyridine] | 6.2 mL/min/kg |  |  |  |  |  |  |  | 
Cc1cc(N2CCC(c3ncc(N4CCNCC4)nc3C)CC2)c2cnn(C)c2n1 [Example 12, 1,6-dimethyl-4-[4-(3-methyl-5-piperazin-1-yl-pyrazin-2-yl)-1-piperidyl]pyrazolo[3,4-b]pyridine] | 9.7 mL/min/kg | > 20 µM | 7 µM | 205.9 | 233.3 | 15.5 |  |  | 
Cc1cc(N2CC[C@@H](c3ncc(N4CCNC5(CC5)C4)cc3C)[C@H](C)C2)c2cnn(C)c2n1 [Example 30, 4-[(3S,4R)-4-[5-(4,7-diazaspiro[2.5]octan-7-yl)-3-methyl-2-pyridyl]-3-methyl-1-piperidyl]-1,6-dimethyl-pyrazolo[3,4-b]pyridine] |  | > 10 µM | 4.9 µM | 544.4 | 350.0 | 11.6 | 0.78 µM |  | 
Cc1cc(N2CCc3c(c(C)nn3CC34CCC(NC(=O)[C@@H]5COCCN5)(CC3)CC4)C2)c2cnn(C)c2n1 [Example N8, reference compound] | 16.3 mL/min/kg |  |  |  |  |  |  | poor | much lower TLR9 activity
Cc1cc(N2CCc3c(c(C)nn3CC34CCC(N(C)C5CCC5)(CC3)CC4)C2)c2cnn(C)c2n1 [Example N79, reference compound] | 18.2 mL/min/kg |  |  |  |  |  |  | poor | best TLR9 activity
